{"source": "patent US6054315A", "about": "“Method for making activated neutrophils recognizable to macrophages” (The Board of Regents of the University of Oklahoma, priority 1997, dated 2000)", "key": {"[1]": {"molecular_target": "T1, hamster galectin-1 mutant N-Gal-1 (monomeric; disruptions of three hydrophobic amino acids at the N-terminus) (Cricetulus griseus, UniProt P48538, A7S/C3S/L5Q/V6D)", "T1 construct": "made in house; host or cells: E. coli (for the recombinant CHO galectin-1)", "T1 sequence (P48538 2-135 C3S/L5Q/V6D/A7S limits assumed)": "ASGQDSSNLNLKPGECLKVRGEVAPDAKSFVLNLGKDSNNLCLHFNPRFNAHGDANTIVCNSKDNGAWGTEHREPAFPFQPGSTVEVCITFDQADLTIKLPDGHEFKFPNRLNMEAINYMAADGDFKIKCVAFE", "assay": "Equilibrium dialysis, binding of N-acetyllactosamine", "method": "(§1) To investigate whether dimerization of the galectin-1 is required to induce apoptosis, mutated forms of galectin-1 were prepared. Recombinant hamster galectin-1, which is highly homologous in sequence with bovine and human galectin-1 with 100% identity at the N- and C-termini positions was used. The protein was prepared as described in Cho and Cummings, 1995b, J. Biol. Chem., 270:5198-5206, ibid, J. Biolchem, 270:5207, 1995. This protein (monomeric or dimeric) contains a stabilizing mutation in which Cys at the 2nd residue was converted to Ser.\n(§2) Specific mutations were created in the N- and C-termini of hamster galectin-1, as indicated in FIG. 3 and as described in further detail in Cho and Cummings, Biochemistry, 35:13081, 1996, which is hereby incorporated by reference herein in its entirety. C2S-Gal-1 contains a single replacement of Cys-2 to Ser. V5D-Gal-1 contains a single mutation of Val-5 to Asp. N-Gal-1 contains disruptions of three hydrophobic amino acids at the N-terminus. We also made another mutant construct, termed N/C-Gal-1, which contained the amino terminal changes of N-Gal-1 in addition to multiple changes in specific hydrophobic amino acids at the C-terminus (data not shown). All mutants, except for C2S-Gal-1, behaved as monomers in size exclusion HPLC and native gel electrophoresis. C2S-Gal-1 was indistinguishable from the native lectin in its ability to undergo monomer-dimer equilibrium and in its carbohydrate-binding affinity. […] However, in equilibrium dialysis N-Gal-1 and V5D-Gal-1 bound N-acetyllactosamine with similar affinity (Kd 90 μM) to that of the C2S-Gal-1 and the native lectin. […] N/C-Gal-1 was non-functional."}, "[2]": {"molecular_target": "T2, hamster galectin-1 mutant V5D-Gal-1 (Val-5 to Asp) (Cricetulus griseus, UniProt P48538, V6D)", "T2 construct": "made in house; host or cells: E. coli (for the recombinant CHO galectin-1)", "T2 sequence (P48538 whole entry V6D)": "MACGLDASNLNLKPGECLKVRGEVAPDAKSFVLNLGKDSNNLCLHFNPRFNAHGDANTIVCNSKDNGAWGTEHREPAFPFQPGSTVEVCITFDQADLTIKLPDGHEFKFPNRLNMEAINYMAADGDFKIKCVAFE", "assay": "Equilibrium dialysis, binding of N-acetyllactosamine", "method": "as §1, §2"}, "[3]": {"molecular_target": "T3, hamster galectin-1 mutant C2S-Gal-1 (Cys-2 to Ser) (Cricetulus griseus, UniProt P48538, C3S)", "T3 construct": "made in house; host or cells: E. coli (for the recombinant CHO galectin-1)", "T3 sequence (P48538 whole entry C3S)": "as the sequence (P48538 whole entry V6D) above, with C3S, D6V counted along it", "assay": "Equilibrium dialysis, binding of N-acetyllactosamine", "conditions": "stated as similar affinity to the mutants", "method": "as §1, §2"}, "[4]": {"molecular_target": "native galectin-1 (native lectin) (Cricetulus griseus, UniProt P48538)", "sequence (P48538 2-135)": "as the sequence (P48538 2-135 C3S/L5Q/V6D/A7S limits assumed) above, with S2C, Q4L, D5V, S6A counted along it", "assay": "Equilibrium dialysis, binding of N-acetyllactosamine", "parameters": "species or system hamster", "conditions": "stated as similar affinity to the mutants", "method": "as §1\nSpecific mutations were created in the N- and C-termini of hamster galectin-1, as indicated in FIG. 3 and as described in further detail in Cho and Cummings, Biochemistry, 35:13081, 1996, which is hereby incorporated by reference herein in its entirety. C2S-Gal-1 contains a single replacement of Cys-2 to Ser. V5D-Gal-1 contains a single mutation of Val-5 to Asp. N-Gal-1 contains disruptions of three hydrophobic amino acids at the N-terminus. We also made another mutant construct, termed N/C-Gal-1, which contained the amino terminal changes of N-Gal-1 in addition to multiple changes in specific hydrophobic amino acids at the C-terminus (data not shown). All mutants, except for C2S-Gal-1, behaved as monomers in size exclusion HPLC and native gel electrophoresis. […]"}, "[5]": {"molecular_target": "T4, recombinant galectin-1 (Cys at the 2nd residue converted to Ser) (Cricetulus griseus, UniProt P48538, C3S)", "T4 construct": "made in house; host or cells: E. coli (for the recombinant CHO galectin-1)", "T4 sequence (P48538 whole entry C3S)": "as the sequence (P48538 whole entry V6D) above, with C3S, D6V counted along it", "assay": "Galectin-1-induced apoptosis of activated neutrophils and desialylated HL-60 cells (annexin V), inhibition by sugars", "format": "cell-based, hamster", "conditions": "galectin-1 10 μM; lactose 10 mM in the method", "method": "Resting or activated neutrophils (3×10^6 cells) were treated with galectin-1 (10 μM) in 0.5 ml of HBSS (lacking Ca^2+ /Mg^2+ and containing 0.5% human albumin) for 90 minutes at 37° C. in the presence or absence of 10 mM lactose. HL-60 cells and desialylated HL-60 cells (3×10^6 cells/0.5 ml) were treated with galectin-1 (10 μM) for 20 hours at 37° C. in the presence or absence of 10 mM lactose. At the end of the incubations all cells were treated with 10 mM lactose in PBS to disaggregate the cells. […]\n(§3) Annexin V is a protein that recognizes phosphatidyl serine (PS) and is a convenient marker for apoptosis of neutrophils and other cells (S. J. Martin, C. P. Reutelingsperger, A. J. McGahon, J. A. Rader, R. C. van Schie, D. M. LaFace and D. R. Green D R, J. Exp. Med., 182:1545, 1995; C. H. Homburg, M. de Haas, A. E. von dem Borne, A. J. Verhoeven, C. P. Reutelingsperger and D. Roos, Blood, 85:532, 1995; I. Vermes, C. Haanen, H. Steffens-Nakken, and C. Reutelingsperger, J. Immunol. Methods, 184:39, 1995; Z. Darzynkiewicz, G. Juan, X. Li, W. Gorczyca, T. Murakami, and F. Traganos, Cytometry 27:1, 1997). […] Within 90 minutes following treatment with 10 μM galectin-1, 36% of the activated neutrophils undergo apoptosis, as determined by their staining with annexin V (FIG. 2A). […]"}, "[6]": {"molecular_target": "T4, recombinant galectin-1 (Cys at the 2nd residue converted to Ser)", "assay": "Galectin-1 agglutination of activated neutrophils and desialylated HL-60 cells, inhibition by sugars", "format": "cell-based, hamster", "method": "In all cases cell binding of galectin-1 to cells was inhibited by 10 mM lactose, a known inhibitor of galectin-1 (FIG. 1), but not by 10 mM maltose, an isomeric, non-inhibitory analog (data not shown). We noted that both activated neutrophils and desialylated HL-60 cells are strongly agglutinated by galectin-1, whereas resting neutrophils and HL-60 cells are not appreciably agglutinated, which further underscores the profound differences in surface phenotypes between resting and activated neutrophils.\nas §3"}, "[7]": {"molecular_target": "T4, recombinant galectin-1 (Cys at the 2nd residue converted to Ser)", "assay": "Binding of biotinylated galectin-1 to activated neutrophils and desialylated HL-60 cells (flow cytometry), inhibition by sugars", "format": "cell-based, hamster", "conditions": "sugar at 10 mM; galectin-1 10 μg/ml, 30 minutes on ice", "from_the_text": "Isolated neutrophils were activated by treatment with PMA and HL-60 cells were desialylated by treatment with neuraminidase. Heparinized blood was obtained from normal donors. Neutrophils were isolated by dextran sedimentation, hypotonic lysis, and density gradient centrifugation on Histopaque-1077 (Sigma), as described [G. A. Zimmerman, T. M. McIntyre, and S. M. Prescott, J. Clin. Invest., 76:2235, 1985]. Typically, the polymorphonuclear cells were >90% neutrophils by Wright-Giemsa staining and >90% CD16^+ as assessed by flow cytometry. Neutrophils were activated by treatment with phorbol myristate acetate (PMA) (Sigma) (0.5 μM) for 20 minutes at 37° C. in RPMI containing 20% FCS (0.5 ml). HL-60 cells were routinely maintained in RPMI containing 20% FCS. Desialylated HL-60 cells were prepared by treating 3×10^7 cells with Arthrobacter ureafaciens neuraminidase (Sigma) (100 mU) in 500 μl of RPMI containing 20% FCS for 1 hour at 37° C. […] The washed cells were incubated with FITC-streptavidin (1:100 dilution) (Sigma), washed once with PBS, and analyzed by flow cytometry. […] \"Unstained\" indicates fluorescence of either resting neutrophils or HL-60 cells incubated in the absence of either MAL or galectin-1. \"Control\" indicates fluorescence of either activated neutrophils or desialylated HL-60 cells incubated with galectin-1 in the presence of 10 mM lactose. […]"}}, "data": [{"smiles": "CC(=O)N[C@H]1C(O)O[C@H](CO)[C@@H](O[C@@H]2O[C@H](CO)[C@H](O)[C@H](O)[C@H]2O)[C@@H]1O", "note": "(stereo partly shown) [N-acetyllactosamine]", "values": [{"measurement": "Kd", "setting": "[1]", "value": 90, "unit": "µM"}, {"measurement": "Kd", "setting": "[2]", "value": 90, "unit": "µM"}, {"measurement": "Kd", "setting": "[3]", "value": "~90", "unit": "µM"}, {"measurement": "Kd", "setting": "[4]", "value": "~90", "unit": "µM"}]}, {"smiles": "OC[C@H]1O[C@@H](O[C@H]2[C@H](O)[C@@H](O)C(O)O[C@@H]2CO)[C@H](O)[C@@H](O)[C@H]1O", "note": "(stereo partly shown) [lactose]", "values": [{"measurement": "inhibition of apoptosis-inducing activity of galectin-1", "setting": "[5]", "value": "inhibited"}, {"measurement": "inhibition of cell agglutinating activity of galectin-1", "setting": "[6]", "value": "inhibited"}, {"measurement": "inhibition of binding of galectin-1 to cells", "setting": "[7]", "value": "inhibited"}]}, {"smiles": "OC[C@H]1O[C@H](O[C@H]2[C@H](O)[C@@H](O)[C@H](O)O[C@@H]2CO)[C@H](O)[C@@H](O)[C@@H]1O", "note": "[maltose]", "values": [{"measurement": "inhibition of apoptosis-inducing activity of galectin-1", "setting": "[5]", "value": "not"}, {"measurement": "inhibition of cell agglutinating activity of galectin-1", "setting": "[6]", "value": "not"}, {"measurement": "inhibition of binding of galectin-1 to cells", "setting": "[7]", "value": "not"}]}]}
